pIC50: −log10 of the molar value. Starred links: 1 amine or outer side, 2 acyl side, 3 side chain; linkers in the order of their positions; H or OH if unused. Positions of bridges follow the written chain, without caps; N, C: chain ends. Non-standard residues stand in square brackets, D forms with d. Residues, ends and D or L forms follow the SMILES beside them. *: point of attachment. hPhe(3-Cl-4-CF3) = N[C@@H](CCc1ccc(C(F)(F)F)c(Cl)c1)C(=O)O; hPhe(3-F,4-CF3) = N[C@@H](CCc1ccc(C(F)(F)F)c(F)c1)C(=O)O; NMePhe(3-CN) = CN[C@@H](Cc1cccc(C#N)c1)C(=O)O; NMePhe(4-Cl) = CN[C@@H](Cc1ccc(Cl)cc1)C(=O)O; NMePhe(4-Me) = CN[C@@H](Cc1ccc(C)cc1)C(=O)O; NMePhe(2-Cl) = CN[C@@H](Cc1ccccc1Cl)C(=O)O; NMedβ3hAla = C[C@H](CC(=O)[*:2])N(C)[*:1]; NMeAla(cPent) = CN[C@@H](CC1CCCC1)C(=O)O; NMeAla(cPr) = CN[C@@H](CC1CC1)C(=O)O; NMeCha = CN[C@@H](CC1CCCCC1)C(=O)O; NMeChg = CN[C@H](C(=O)O)C1CCCCC1; NMeI = CC[C@H](C)[C@H](NC)C(=O)O; Gly(cBu) = N[C@H](C(=O)O)C1CCC1; NMeD = CN[C@@H](CC(=O)O)C(=O)O; NMeL = CN[C@@H](CC(C)C)C(=O)O; NMeV = CN[C@H](C(=O)O)C(C)C; dIva = CC[C@@](C)(N)C(=O)O; NMeA = CN[C@@H](C)C(=O)O; Piperidide = C1CCN(*)CC1; Ac5c = NC1(C(=O)O)CCCC1; Aze = O=C(O)[C@@H]1CCN1; Sar = CNCC(=O)O Bounds are passed on as bounds.

Data on seven compounds can be found in patent US12371454B2, “Cyclic peptide compound having Kras inhibitory action” (priority 2019, dated 2025).

For assay [1], the target named is T1, Kras and SOS1 (biotin-tagged human Kras loaded with GDP, His-tagged human SOS1) (Homo sapiens, UniProt P01116, G12D).
T1 construct: made in house; host or cells: E. coli (stated for Kras only)
T1 sequence (P01116 1-188 isoform P01116-2 G12D): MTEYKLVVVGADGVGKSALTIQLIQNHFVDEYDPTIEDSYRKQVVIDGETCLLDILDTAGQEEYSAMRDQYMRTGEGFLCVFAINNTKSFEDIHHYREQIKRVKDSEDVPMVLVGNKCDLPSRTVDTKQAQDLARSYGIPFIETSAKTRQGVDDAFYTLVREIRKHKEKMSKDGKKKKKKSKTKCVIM
Put plainly: Protein-protein interaction inhibition between Kras and SOS1 (KrasGl2D-SOS PPI) using AlphaScreen. It is filed as binding. The conditions noted are these: AlphaScreen; biotin-tagged human Kras loaded with GDP, His-tagged human SOS1; read-out: KRAS G12D-SOS PPI IC50. In a few lines:
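Binding between SOS1 and Kras is detected as bead-proximity luminescence: illuminate Ni-conjugated donors (680 nm), collect 520-620 nm emission from streptavidin-conjugated acceptors; Kras carries biotin and GDP loaded after purification, SOS1 carries a His tag.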

Assay [2] concerns Human pancreatic cancer cell line AsPC-1. Put plainly: Measurement of AsPC-1 cell growth inhibition (AsPC-1 CGI). It is filed as cell-based. The conditions noted are these: 96 h. Summed up:
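AsPC-1 cells in 15% FBS RPMI-1640 were exposed to test compound for 96 hours at 37° C, with CellTiter-Glo as endpoint.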

In the case of `CC[C@H](C)[C@@H]1NC(=O)[C@H](CC(C)C)N(C)C(=O)C[C@@H](C(=O)N(C)C)N(C)C(=O)[C@H]([C@@H](C)CC)N(C)C(=O)C2(CCCC2)NC(=O)[C@H](Cc2ccccc2Cl)N(C)C(=O)[C@H](CCc2ccc(C(F)(F)F)c(Cl)c2)NC(=O)CN(C)C(=O)[C@H](Cc2ccc(C)cc2)N(C)C(=O)[C@@H]2CCN2C(=O)[C@H](C)N(C)C1=O` [Compound 216] ([NMeL]I[NMeA][Aze][NMePhe(4-Me)][Sar][hPhe(3-Cl-4-CF3)][NMePhe(2-Cl)][Ac5c][NMeI][NMeD]-NMe2; lactam N-11), the pIC50 in assay [1] was 8.10; in assay [2], 6.30 to 7.00.

With `CC[C@H](C)[C@@H]1NC(=O)[C@H](CC(C)C)N(C)C(=O)C[C@@H](C(=O)N2CCCCC2)N(C)C(=O)[C@H](C(C)C)N(C)C(=O)C2(CCCC2)NC(=O)[C@@H]2CCCN2C(=O)[C@H](CCc2ccc(C(F)(F)F)c(Cl)c2)NC(=O)CN(C)C(=O)[C@H](CC2CCCC2)N(C)C(=O)CN(C)C(=O)CN(C)C1=O` [Compound 220] ([NMeL]I[Sar][Sar][NMeAla(cPent)][Sar][hPhe(3-Cl-4-CF3)]P[Ac5c][NMeV][NMeD]-Piperidide; lactam N-11), the results for the pIC50 in assay [1] and in assay [2] were 8.51 and 6.30 to 7.00, respectively.

As to `CC(C)C[C@H]1C(=O)N[C@@H](C2CCC2)C(=O)N(C)CC(=O)N(C)CC(=O)N(C)[C@@H](CC2CCCCC2)C(=O)N(C)CC(=O)N[C@@H](CCc2ccc(C(F)(F)F)c(Cl)c2)C(=O)N2CCC[C@H]2C(=O)NC2(CCCC2)C(=O)N(C)[C@@H](C(C)C)C(=O)N(C)[C@H](C(=O)N2CCCCC2)CC(=O)N1C` [Compound 221] ([NMeL][Gly(cBu)][Sar][Sar][NMeCha][Sar][hPhe(3-Cl-4-CF3)]P[Ac5c][NMeV][NMeD]-Piperidide; lactam N-11), the pIC50 is 8.55 in assay [1] and 6.30 to 7.00 in assay [2].

Take `CC[C@H](C)[C@@H]1NC(=O)[C@H](CC(C)C)N(C)C(=O)C[C@@H](C)N(C)C(=O)[C@H](C(C)C)N(C)C(=O)[C@@](C)(CC)NC(=O)[C@@H]2CCCN2C(=O)[C@H](CCc2ccc(C(F)(F)F)c(Cl)c2)NC(=O)CN(C)C(=O)[C@H](CC2CCCCC2)N(C)C(=O)CN(C)C(=O)CN(C)C1=O` [Compound 223] (cyclo(I[Sar][Sar][NMeCha][Sar][hPhe(3-Cl-4-CF3)]P[dIva][NMeV][NMedβ3hAla][NMeL])): the pIC50 in assay [1] was 7.74; in assay [2] it was 6.30 to 7.00.

Consider `CC[C@H](C)[C@@H]1NC(=O)[C@H](CC(C)C)N(C)C(=O)C[C@@H](C(=O)N2CCCCC2)N(C)C(=O)[C@H](C(C)C)N(C)C(=O)C2(CCCC2)NC(=O)[C@@H]2CCCN2C(=O)[C@H](CCc2ccc(C(F)(F)F)c(F)c2)NC(=O)CN(C)C(=O)[C@H](Cc2ccc(Cl)cc2)N(C)C(=O)CN(C)C(=O)CN(C)C1=O` [Compound 229] ([NMeL]I[Sar][Sar][NMePhe(4-Cl)][Sar][hPhe(3-F,4-CF3)]P[Ac5c][NMeV][NMeD]-Piperidide; lactam N-11), for which the pIC50 in assay [1] was 8.17; in assay [2] it was 6.30 to 7.00.

On to `CC[C@H](C)[C@@H]1NC(=O)[C@H](CC(C)C)N(C)C(=O)C[C@@H](C(=O)N2CCCCC2)N(C)C(=O)[C@H](C2CCCCC2)N(C)C(=O)C2(CCCC2)NC(=O)[C@@H]2CCCN2C(=O)[C@H](CCc2ccc(C(F)(F)F)c(Cl)c2)NC(=O)CN(C)C(=O)[C@H](CC2CC2)N(C)C(=O)CN(C)C(=O)CN(C)C1=O` [Compound 234] ([NMeL]I[Sar][Sar][NMeAla(cPr)][Sar][hPhe(3-Cl-4-CF3)]P[Ac5c][NMeChg][NMeD]-Piperidide; lactam N-11), for which the results for the pIC50 in assay [1] and in assay [2] were 8.68 and below 6.30, respectively.

On to `CC[C@H](C)[C@@H]1NC(=O)[C@H](CC(C)C)N(C)C(=O)C[C@@H](C)N(C)C(=O)[C@H](C(C)C)N(C)C(=O)C2(CCCC2)NC(=O)[C@@H]2CCCN2C(=O)[C@H](CCc2ccc(C(F)(F)F)c(Cl)c2)NC(=O)CN(C)C(=O)[C@H](Cc2cccc(C#N)c2)N(C)C(=O)CN(C)C(=O)CN(C)C1=O` [Compound 238] (cyclo([Ac5c][NMeV][NMedβ3hAla][NMeL]I[Sar][Sar][NMePhe(3-CN)][Sar][hPhe(3-Cl-4-CF3)]P)), for which the negative-log IC50 (pIC50) in assay [1] was 7.92; in assay [2], 6.30 to 7.00.

One may read the pIC50 as the IC50 on a negative log10 scale, so that one unit is a factor of ten.
